± gives the expanded uncertainty stated by the source.
Test: mn = molality of the nth substance listed, in mol/kg
Conditions: 101.3 kPa, Liquid

N[C@@H](CCC(=O)[O-])C(=O)O.[Na+] [sodium (S)-2-amino-4-carboxybutanoate] + O
speed of sound [m/s]
Conditions	278.15 K	288.15 K	298.15 K
Frequency=2 MHz, Linear variable-path acoustic interferometer, m1 = 0.0467	1433.6 ± 1.7	–	–
Frequency=2 MHz, Linear variable-path acoustic interferometer, m1 = 0.0724	1437.7 ± 1.7	–	–
Frequency=2 MHz, Linear variable-path acoustic interferometer, m1 = 0.091	1441 ± 1.7	–	–
Frequency=2 MHz, Linear variable-path acoustic interferometer, m1 = 0.1095	1442.8 ± 1.7	–	–
Frequency=2 MHz, Linear variable-path acoustic interferometer, m1 = 0.1355	1446.8 ± 1.8	–	–
Frequency=2 MHz, Linear variable-path acoustic interferometer, m1 = 0.163	1451.4 ± 1.8	–	–
Frequency=2 MHz, Linear variable-path acoustic interferometer, m1 = 0.1906	1455.3 ± 1.8	–	–
Frequency=2 MHz, Linear variable-path acoustic interferometer, m1 = 0.2075	1458.8 ± 1.9	–	–
Frequency=2 MHz, Linear variable-path acoustic interferometer, m1 = 0.2251	1461.7 ± 1.8	–	–
Frequency=2 MHz, Linear variable-path acoustic interferometer, m1 = 0.2436	1464 ± 1.9	–	–
Frequency=2 MHz, Linear variable-path acoustic interferometer, m1 = 0.2705	1468.1 ± 2	–	–
Frequency=2 MHz, Linear variable-path acoustic interferometer, m1 = 0.2895	1471.7 ± 2	–	–
Frequency=2 MHz, Linear variable-path acoustic interferometer, m1 = 0.302	1473.6 ± 2	–	–
Frequency=3 MHz, Sing-around technique in a fixed-path interferometer, m1 = 0.0469	–	1472.9 ± 1.2	1502.5 ± 1.2
Frequency=3 MHz, Sing-around technique in a fixed-path interferometer, m1 = 0.072	–	1476.6 ± 1.2	1505.8 ± 1.2
Frequency=3 MHz, Sing-around technique in a fixed-path interferometer, m1 = 0.0904	–	1478.9 ± 1.2	1508.2 ± 1.2
Frequency=3 MHz, Sing-around technique in a fixed-path interferometer, m1 = 0.1082	–	1481.3 ± 1.3	1510.5 ± 1.3
Frequency=3 MHz, Sing-around technique in a fixed-path interferometer, m1 = 0.1368	–	1485.6 ± 1.3	1514.4 ± 1.3
Frequency=3 MHz, Sing-around technique in a fixed-path interferometer, m1 = 0.1628	–	1489.3 ± 1.3	1517.9 ± 1.3
Frequency=3 MHz, Sing-around technique in a fixed-path interferometer, m1 = 0.19	–	1492.9 ± 1.3	1521.3 ± 1.3
Frequency=3 MHz, Sing-around technique in a fixed-path interferometer, m1 = 0.2089	–	1495.3 ± 1.3	1523.6 ± 1.3
Frequency=3 MHz, Sing-around technique in a fixed-path interferometer, m1 = 0.2289	–	1497.5 ± 1.4	1525.8 ± 1.3
Frequency=3 MHz, Sing-around technique in a fixed-path interferometer, m1 = 0.2441	–	1499.7 ± 1.5	1527.8 ± 1.4
Frequency=3 MHz, Sing-around technique in a fixed-path interferometer, m1 = 0.264	–	1503.2 ± 1.5	1531.1 ± 1.4
Frequency=3 MHz, Sing-around technique in a fixed-path interferometer, m1 = 0.2916	–	1506.7 ± 1.4	1533.9 ± 1.4
Frequency=3 MHz, Sing-around technique in a fixed-path interferometer, m1 = 0.316	–	1509 ± 1.4	1537 ± 1.5

mass density [kg/m3]
Conditions	278.15 K	288.15 K	298.15 K
Pycnometric method, m1 = 0.0467	1004.22 ± 0.29	–	–
Pycnometric method, m1 = 0.0724	1006.57 ± 0.31	–	–
Pycnometric method, m1 = 0.091	1008.26 ± 0.32	–	–
Pycnometric method, m1 = 0.1095	1009.79 ± 0.35	–	–
Pycnometric method, m1 = 0.1355	1012.41 ± 0.38	–	–
Pycnometric method, m1 = 0.163	1014.89 ± 0.41	–	–
Pycnometric method, m1 = 0.1906	1017.32 ± 0.44	–	–
Pycnometric method, m1 = 0.2075	1018.82 ± 0.46	–	–
Pycnometric method, m1 = 0.2251	1020.29 ± 0.5	–	–
Pycnometric method, m1 = 0.2436	1022.15 ± 0.5	–	–
Pycnometric method, m1 = 0.2705	1024.19 ± 0.55	–	–
Pycnometric method, m1 = 0.2895	1026.12 ± 0.66	–	–
Pycnometric method, m1 = 0.302	1027.42 ± 0.69	–	–
Vibrating tube method, m1 = 0.0469	–	1003.34 ± 0.14	1001.22 ± 0.14
Vibrating tube method, m1 = 0.072	–	1005.66 ± 0.17	1003.48 ± 0.17
Vibrating tube method, m1 = 0.0904	–	1007.29 ± 0.19	1005.08 ± 0.19
Vibrating tube method, m1 = 0.1082	–	1008.87 ± 0.22	1006.62 ± 0.21
Vibrating tube method, m1 = 0.1368	–	1011.34 ± 0.26	1009.04 ± 0.26
Vibrating tube method, m1 = 0.1628	–	1013.63 ± 0.31	1011.28 ± 0.3
Vibrating tube method, m1 = 0.19	–	1016.04 ± 0.35	1013.63 ± 0.34
Vibrating tube method, m1 = 0.2089	–	1017.65 ± 0.37	1015.21 ± 0.36
Vibrating tube method, m1 = 0.2289	–	1019.31 ± 0.4	1016.84 ± 0.39
Vibrating tube method, m1 = 0.2441	–	1020.63 ± 0.43	1018.13 ± 0.42
Vibrating tube method, m1 = 0.264	–	1022.32 ± 0.46	1019.79 ± 0.46
Vibrating tube method, m1 = 0.2916	–	1024.67 ± 0.5	1022.11 ± 0.49
Vibrating tube method, m1 = 0.316	–	1026.69 ± 0.53	1024.08 ± 0.52
